Data: PubChem BioAssay (NCI)
Several values for one entry are separate records, joined by “and”; a condition that tells them apart may be missing. Identical values can stand only once.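 Test compounds were applied to cells in 96-well plates for 48 hours at 5 doses. GI50 marks 50% less growth. Definition used: TGI = concentration required for complete inhibition of growth.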

Experiments:
Assay in all cases: NCI-60 cell line screen, 48 h
SNB-78 CNS = system: SNB-78 CNS
DLD-1 colon = system: DLD-1 colon
LXFL 529 NSCLC = system: LXFL 529 NSCLC
RXF-631 renal = system: RXF-631 renal
XF 498 CNS = system: XF 498 CNS
HOP-18 NSCLC = system: HOP-18 NSCLC
DMS 114 small cell lung = system: DMS 114 small cell lung
M19-MEL melanoma = system: M19-MEL melanoma
MDA-N = system: MDA-N

| SMILES | TGI (SNB-78 CNS) [µM] | TGI (DLD-1 colon) [µM] | TGI (LXFL 529 NSCLC) [µM] | TGI (RXF-631 renal) [µM] | TGI (XF 498 CNS) [µM] | TGI (HOP-18 NSCLC) [µM] | TGI (DMS 114 small cell lung) [µM] | TGI (M19-MEL melanoma) [µM] | further results |
| --- | --- | --- | --- | --- | --- | --- | --- | --- | --- |
| C/C=C/C(=O)[O-].N.N.N.N.N.[Co+3].[O-][Cl+3]([O-])([O-])[O-] | > 100 | > 100 | > 100 | – | – | – | – | – | GI50 (SNB-78 CNS): > 100 µM; GI50 (DLD-1 colon): > 100 µM; GI50 (LXFL 529 NSCLC): > 100 µM |
| CNC(C)Cc1ccc(O)cc1 (centres undefined) | > 100 | > 100 | > 100 | > 100 | > 100 | > 100 | > 100 | – | – |
| COC(=O)C1=C(c2cc(OC)c(OC)c(OC)c2)O[C@H](c2ccc3c(c2)OCO3)[C@H]1COC(C)=O | > 100 | > 100 | 69.2 | > 100 | > 100 | > 100 | – | > 100 | – |
| Cc1ccc(C)c2c1CCc1cc3ccccc3nc1-2 | > 100 | > 100 | > 100 | – | > 100 | > 100 | > 100 | > 100 | – |
| COc1ccc(/C=C/c2cnc3ccccc3n2)cc1OC | – | – | – | – | – | – | – | – | TGI (MDA-N): > 100 µM |
| O=C(O)Cc1cc(=O)[nH]c2c1C(=O)CCC2 | – | > 100 | > 100 | – | > 100 | > 100 | – | > 100 | – |
| CC(=O)Nc1cc2cc(NS(=O)(=O)c3cc(C(F)(F)F)cc(C(F)(F)F)c3)ccc2oc1=O | – | – | – | – | – | – | – | – | TGI (MDA-N): > 100 µM |
| Cc1cccc(O)c(=O)c1 | > 100 | > 100 | > 100 | – | – | > 100 | 45.7 | > 100 | – |
| COC(=O)c1nn(C(=N)c2ccc(Cl)cc2)c2c1CCCCC2 | > 100 | > 100 | > 100 | – | – | – | > 100 | > 100 | – |
| COC(=O)/C(=N/O)C(C(=O)OC)C(=O)C(=O)Nc1c(Cl)cc(C)cc1S(=O)(=O)O (centres undefined) | > 100 | > 100 | > 100 | > 100 | > 100 | > 100 | > 100 | > 100 | – |
| [N-]=[N+]=Nc1c(Br)c(=O)[nH]c(=O)n1COCCO | > 100 | > 100 | > 100 | > 100 | > 100 | > 100 | > 100 | > 100 | – |
| COc1cccc2ccc3c(c12)C(=O)OC31CCc2c(C)cccc21 (centres undefined) | > 100 | > 31.6 | > 31.6 | – | 86.2 | > 31.6 | > 31.6 | > 31.6 | TGI (MDA-N): > 100 µM |
| S=c1[nH]nc(SCc2ccccc2Cl)c2[nH]cnc12 | – | – | – | – | – | – | – | – | TGI (MDA-N): > 100 µM |
| CCCCN(CCCC)C(=O)C(=O)CC(=O)/C=C/c1ccccc1 | > 100 | > 100 | > 100 | > 100 | – | > 100 | > 100 | > 100 | – |
| C[C@H]1CCC/C=C/[C@@H]2C[C@H](O)C[C@H]2[C@H](O)[C@@H](SC2OC(CO)C(O)C(O)C2O)CC(=O)O1 (some centres undefined) | – | – | – | – | – | – | – | – | GI50 (MDA-N): 52.9 µM; TGI (MDA-N): > 100 µM |
| Cc1c(N)nc(C(CC(N)=O)NCC(N)C(N)=O)nc1C(=O)NC(C(=O)NC(C)C(O)C(C)C(=O)NC(C(=O)NCCc1nc(-c2nc(C(=O)NCCCNCCCCN)cs2)cs1)C(C)O)C(OC1OC(CO)C(O)C(O)C1OC1OC(CO)C(O)C(OC(N)=O)C1O)c1cnc[nH]1 (centres undefined) | > 10 | > 10 | > 10 | > 10 | > 10 | > 10 | > 10 | > 10 | GI50 (MDA-N): 27.4 µg/mL |
| O=C(Nc1ccccc1C(=O)Nc1nccs1)c1ccccc1 | – | – | – | – | – | – | – | – | TGI (MDA-N): > 100 µM |
| CC(C)N(Cc1ccccc1)S(=O)(=O)c1n[nH]c(C(C)(C)C)n1 | – | – | – | – | – | – | – | – | TGI (MDA-N): > 100 µM |
| COc1cc(N=Nc2cccc(S(N)(=O)=O)c2)c2ccccc2c1N | – | – | – | – | – | – | – | – | TGI (MDA-N): 5.63 µM |

| SMILES | TGI (SNB-78 CNS) [µM] | TGI (DLD-1 colon) [µM] | TGI (LXFL 529 NSCLC) [µM] | TGI (RXF-631 renal) [µM] | TGI (XF 498 CNS) [µM] | TGI (HOP-18 NSCLC) [µM] | TGI (DMS 114 small cell lung) [µM] | TGI (M19-MEL melanoma) [µM] | further results |
| --- | --- | --- | --- | --- | --- | --- | --- | --- | --- |
| COc1cc2c3c(c1OC)Oc1ccc(cc1)CC1c4c(cc(OC)c(OC)c4Oc4ccc(cc4)CC3N(C)CC2)CCN1C (centres undefined) | – | > 100 | 39.6 | – | – | 84.2 | 35.9 | 31.3 | – |
| Cc1cc(Cl)ccc1NC(=O)CCCC(=O)C(C(=O)c1ccccc1)c1ccccc1 (centres undefined) | > 100 | > 100 | > 100 | > 100 | – | – | > 100 | > 100 | – |
| CC1=NN(C(=O)c2cc(Cl)cc([N+](=O)[O-])c2)C(=O)C1N=Nc1ccccc1C(=O)O (centres undefined) | > 100 | > 100 | > 100 | > 100 | – | > 100 | – | > 100 | – |
| CCOC(=O)NC(=O)c1cn(C2OC(CO)C(O)C2O)c(=O)[nH]c1=O (centres undefined) | – | > 100 | > 100 | > 100 | – | – | > 100 | > 100 | – |
| COC(=O)C12C3C4C1C1C2C3C41C(=O)N(C(C)C)C(C)C (centres undefined) | > 100 | > 100 | > 100 | – | – | – | > 100 | > 100 | – |
| CCC1(CC)C(=O)[N-]C(=O)[N-]C1=O.[Au+].[Au+].c1ccc([PH+](c2ccccc2)c2ccccc2)cc1.c1ccc([PH+](c2ccccc2)c2ccccc2)cc1 | – | – | 0.323 | – | – | 1.16 | – | 2.17 | GI50 (M19-MEL melanoma): 0.937 µM; GI50 (LXFL 529 NSCLC): 0.153 µM; GI50 (HOP-18 NSCLC): 0.256 µM |
| CCOC(=O)/C(C#N)=C(N)/C(=N\Nc1cccc(C(F)(F)F)c1)C(=O)OCC | > 100 | > 100 | > 100 | – | – | > 100 | > 100 | > 100 | – |
| O=C(O)c1oc2cccc3c2c1CCC3 | > 100 | > 100 | > 100 | > 100 | > 100 | – | > 100 | > 100 | – |
| O=C1NC(O)CCN1C1CC(O)C(CO)O1 (centres undefined) | – | – | – | – | – | – | – | – | TGI (MDA-N): > 100 µM |
| Cc1ccc(SCC(O)=C2C(=O)CCCC2=O)cc1 | > 100 | > 100 | > 100 | > 100 | > 100 | > 100 | > 100 | > 100 | – |
| N[C@H](C(=O)O)[C@@H](Cl)CC(=O)O | > 100 | > 100 | > 100 | – | > 100 | > 100 | > 100 | > 100 | – |
| C[C@]12CC[C@H]3[C@@H](CCC4=C[C@@H](OC5OCC(OC6OC(CO)C(O)C(O)C6O)C(O)C5O)CC[C@@]43C=O)[C@@]1(O)CCC2C1=CC(=O)OC1 (some centres undefined) | – | – | – | – | – | – | – | – | TGI (MDA-N): 3.03 µM |
| O=[N+]([O-])c1ccc(NC(=S)N/N=C(\c2ccccc2)c2ccccn2)cc1 | – | – | – | – | – | – | – | – | TGI (MDA-N): 3.32 µM and 3.1 µM |
| CCCCCCCCCCCCCCC(O)C1CCC(C(O)CCC(O)CCCCCC(O)CC2=CC(C)OC2=O)O1 (centres undefined) | 8.31 | 11.9 | 13 | 16.4 | 4.88 | – | 4.57 | 11.2 | – |
| O=C1C2=C(c3ccccc31)C(c1ccc(Cl)cc1)NC(=S)N2 (centres undefined) | – | 60.9 | 29.5 | – | – | – | 67.5 | 37.2 | – |
| COc1cc(C(=O)C/C(CCC(=O)Nc2ccc(Cl)cc2Cl)=N/Nc2nnc(C)n2N)ccc1O | > 100 | > 100 | > 100 | – | > 100 | > 100 | – | > 100 | – |
| O=c1cccccc1NCCNc1cccccc1=O | > 100 | – | > 100 | > 100 | > 100 | – | > 100 | > 100 | – |
| O=C(Nc1ccccc1C(=O)O)C(=O)C(C(=O)c1ccccc1-c1ccccc1)C1OC(=O)c2ccccc21 (centres undefined) | > 100 | 47 | 28 | – | 22 | 28.2 | – | 64.2 | – |
| C[C@@H](c1ccccc1)N(CC#N)C1CCC[C@H]1O (some centres undefined) | > 100 | – | – | > 100 | > 100 | > 100 | – | > 100 | – |
